The source of these data is patent US20060160789A1 (priority 2005, published 2006).

Several values for one entry are separate records, joined by “and”; a condition that tells them apart may be missing. Equal values may be shown once.

The assay has as its system patients hospitalized for a laparotomy in the context of digestive surgery. The following applies: human, in vivo.

Regarding `CN1CCOC(c2ccccc2)c2ccccc2C1` (centres unmarked) [nefopam], the “Morphine PCA over 24 h” value was 0.255 mg/kg and 0.454 mg/kg; the “Morphine titration (mg)” value is 7.5 mg and 9 mg; the “Morphine titration (mg/kg)” value was 0.082 mg/kg and 0.130 mg/kg; the “Total morphine over 24 h” value was 0.365 mg/kg and 0.649 mg/kg. The “quantity of morphine titration administered for group 4 versus quantity expected if nefopam only had analgesic effects” value is “smaller than that which would have had to be administered to the group if nefopam only had analgesic effects”.
